One series concerns patients. As to conditions: cited from earlier work.
The test system of series [1] is pancreatic Langerhans islets of rats with alloxan diabetes. The experiment in a line: Histological examination of the pancreas of alloxan-diabetic rats (Example 3). The format is in vivo, rat. As to conditions: in 20 days after treatment; for Pancreatic Langerhans islet structure, haematoxylin-eosin staining: magnification 40×7; for Pancreatic Langerhans islet structure, aldehyde fuchsine staining: magnification 20×7. How it is done:
Histological examination of pancreatic structure was carried out using the haematoxylin-eosin and aldehyde fuchsine staining of pancreatic sections using standard techniques.

In series [2] the test system is rats with alloxan diabetes. The experiment in a line: Hypoglycemic activity, alloxan diabetes model in rats (Example 1). The format is in vivo, rat. Here is the method: The pharmaceutical compositions for determination of anti-diabetic action had the following composition: active compound—1 g, potato starch—1 g, water—100 ml.
(§1) The comparison of anti-diabetic action of compounds was carried out using a standard model of alloxan diabetes and metmorphin as a comparative drug. The alloxan diabetes was induced by a single subcutaneous injection of water solution of alloxan hydrate (ICN Biomedicals, USA) at a dose of 150 mg/kg to rats weighting 180-200 g that have fasted for 24 hours. The following animal groups were studied: intact rats, diabetic non-treated rats, diabetic rats receiving Polfa-Kutno Ltd.″ metmorphin daily (for 23 days, 200 mg/kg); diabetic rats receiving daily (for 20 days) the abovementioned pharmaceutical compositions containing, as an active components, the compounds described in this invention: MC-200-MC-225. The compounds were administered intragastrically once a day in starch gel at a dose of 50 mg/kg rat weight.
(§2) The experimental drug doses were selected assuming the expected therapeutic doses for man and previously determined toxic doses (LD50 of studied compounds was approximately 500-1,000 mg/kg). The metmorphin dose for rats was extrapolated from the therapeutic dose for man. Drug administration was started on the third day after alloxan injection when blood glucose level increased approximately 3-fold as compared to control value. Each group consisted of 20 animals of both genders.

The subject of series [3] is white rats with experimental diabetes (alloxan diabetes). The experiment in a line: Anti-diabetic, hypolipidemic and hypocholesteremic activity, alloxan diabetes model in rats (Example 2). The format is in vivo, rat. As to conditions: compounds 50 mg/kg, metmorphin 200 mg/kg daily. How it is done: as §1, §2
Pharmaceutical compositions for determination of anti-diabetic action had the same composition as that given in Example I.
The comparison of the anti-diabetic action of compounds was carried out using a standard model of alloxan diabetes, as described in Example I, and metmorphin as a comparative drug.
In the course of experiment, the following parameters were recorded: animal general condition, water consumption, body mass, levels of glucose, total lipids, tri-glycerides, serum blood cholesterol, and glycosylated hemoglobin, using the generally accepted techniques (Laboratory methods of studies in clinical practice, V. V. Menshikov, Ed., Moscow, “Medicine”, 1987).

[4] abbreviates: diabetic rats' blood, in 10 days, compounds 50 mg/kg intragastrically once a day in starch gel, metmorphin 200 mg/kg daily.
[5] abbreviates: diabetic rats' blood, in 20 days, compounds 50 mg/kg intragastrically once a day in starch gel, metmorphin 200 mg/kg daily.

These results are taken from patent US8247407B2, priority 2007, dated 2012).

Values joined by “and” are separate entries in the source; they are usually repeats but may differ in a detail not shown here. Identical values can stand only once. Counter-ions that a name gives are not always drawn.

Consider `CN(CCOc1ccc(CC2SC(=O)NC2=O)cc1)c1ccccn1` (stereo not drawn) [Avandia], for which, in the series on patients (Avandia group as compared to the untreated group), the “Fatality rate after infarction, higher than untreated group” value was 64%. Further, in the series on patients (patients who took Avandia as compared to the untreated group), the “Probability of myocardial infarction, higher than untreated group” value is reported as 43%.
As to `CCOC(=O)c1c(CSc2ccccc2)n(C)c2cc(Br)c(O)c(CN(C)C)c12` [MC-200, 1-methyl-2-phenylthiomethyl-3-carbethoxy-4-dimethylaminomethyl-5-hydroxy-6-bromoindole hydrochloride], the “Pancreatic Langerhans islet structure, haematoxylin-eosin staining” value in series [1] is listed as “Restoration of pancreatic Langerhans islet”. For the same compound, the “Glucose content, mmol/l, in 10 days” value in series [2] (setting [4]) turned out to be 5.6 ± 0.2 mmol/L. Further, in series [2] (setting [5]), the “Glucose content, mmol/l, in 20 days” value stood at 5.4 ± 0.3 mmol/L. Also, in series [3] (in 10 days), the Body mass is 180 ± 5 g, the Cholesterol came out at 2.7 ± 0.4 mmol/L, the Daily water consumption was 20 ± 3 mL and the Glucose was determined as 5.6 ± 0.2 mmol/L. Also, in series [3] (in 10 days), the Glycosylated hemoglobin turned out to be 6.2 ± 0.3 mol %, the “Percent of survived rats” value worked out at 100%, the Total lipids worked out at 10.2 ± 0.5 g/L and the Tri-glycerides turned out to be 2.5 ± 0.2 mmol/L. In series [3] (in 10 days), this compound showed a β-lipoproteins of 2.0 ± 0.2 g/L. Moreover, in series [3] (in 20 days), the Body mass turned out to be 182 ± 10 g, the Cholesterol came to 1.5 ± 0.2 mmol/L, the Daily water consumption was 24 ± 6 mL and the Glucose is 5.4 ± 0.3 mmol/L. In series [3] (in 20 days), the Glycosylated hemoglobin is given as 6.5 ± 05 mol %, the “Percent of survived rats” value is on record as 75%, the Total lipids stood at 10.6 ± 1.0 g/L and the Tri-glycerides amounted to 1.5 ± 0.2 mmol/L. In series [3] (in 20 days), this compound registered a β-lipoproteins of 2.1 ± 0.3 g/L.
Take `CCOC(=O)c1c(CN2CCCC2)n(C)c2cc(-c3cccnc3)c3c(c12)CN(C)CO3` [MC-213, 9-carbethoxy-2,7-dimethyl-5-pyridine-3-yl-8-[(pyrrolidine-1-yl)methyl]-1,2,3,7-tetrahydro[1,3]oxazino [5,6-e] indole trihydrochloride]: in series [2] (rat, in vivo), the “Glucose content, mmol/l, in 10 days” value stood at 5.8 ± 0.4 mmol/L and the “Glucose content, mmol/l, in 20 days” value was 5.5 ± 0.3 mmol/L. Further, in series [3] (in 10 days), the Body mass was 185 ± 5 g, the Cholesterol was found to be 2.7 ± 0.5 mmol/L, the Daily water consumption was 26 ± 5 mL and the Glucose is 5.8 ± 0.3 mmol/L. Further, in series [3] (in 10 days), the Glycosylated hemoglobin came to 6.4 ± 0.3 mol %, the “Percent of survived rats” value is 90%, the Total lipids was found to be 10.5 ± 0.5 g/L and the Tri-glycerides came out at 2.5 ± 0.3 mmol/L. The compound further returned a β-lipoproteins in series [3] (in 10 days) of 2.2 ± 0.2 g/L. In series [3] (in 20 days), this compound returned a Body mass of 183 ± 10 g, a Cholesterol of 1.5 ± 0.2 mmol/L, a Daily water consumption of 25 ± 6 mL and a Glucose of 5.5 ± 0.3 mmol/L. In series [3] (in 20 days), the Glycosylated hemoglobin is 6.2 ± 0.5 mol %, the “Percent of survived rats” value came out at 75%, the Total lipids was 10.4 ± 1.0 g/L and the Tri-glycerides came out at 1.7 ± 0.2 mmol/L. The compound also registered a β-lipoproteins in series [3] (in 20 days) of 2.1 ± 0.2 g/L.
`CCOC(=O)c1c(CSc2ccc3ccccc3c2)n(C)c2cc(Br)c(O)c(CN(C)C)c12` [MC-217, 1-methyl-2-β-naphthylthiomethyl-3-carbethoxy-4-dimethylaminomethyl-5-hydroxy-6-bromoindole hydrochloride]: in series [1], the “Pancreatic Langerhans islet structure, aldehyde fuchsine staining” value is listed as “Restoration of pancreatic Langerhans islet” and the “Pancreatic Langerhans islet structure, haematoxylin-eosin staining” value was “Restoration of pancreatic Langerhans islet”. For the same compound, in series [2] (rat, in vivo), the “Glucose content, mmol/l, in 10 days” value was 5.2 ± 0.2 mmol/L and the “Glucose content, mmol/l, in 20 days” value was determined as 4.8 ± 0.3 mmol/L. Moreover, in series [3] (in 10 days), the Body mass was determined as 190 ± 10 g, the Cholesterol came out at 2.4 ± 0.2 mmol/L, the Daily water consumption turned out to be 25 ± 5 mL and the Glucose worked out at 5.2 ± 0.2 mmol/L. In series [3] (in 10 days), the Glycosylated hemoglobin is reported as 5.2 ± 0.2 mol %, the “Percent of survived rats” value came to 100%, the Total lipids turned out to be 10.4 ± 0.5 g/L and the Tri-glycerides was 2.3 ± 0.2 mmol/L. Also, in series [3] (in 10 days), the β-lipoproteins is 2.1 ± 0.2 g/L. In series [3] (in 20 days), this compound showed a Body mass of 185 ± 10 g, a Cholesterol of 1.4 ± 0.2 mmol/L, a Daily water consumption of 22 ± 5 mL and a Glucose of 4.8 ± 0.1 mmol/L. For the same compound, in series [3] (in 20 days), the Glycosylated hemoglobin was found to be 4.9 ± 0.3 mol %, the “Percent of survived rats” value stood at 100%, the Total lipids came out at 10.2 ± 0.3 g/L and the Tri-glycerides turned out to be 1.5 ± 0.2 mmol/L. The compound also had a β-lipoproteins in series [3] (in 20 days) of 2.1 ± 0.2 g/L.
For the compound `CN(C)C(=N)N=C(N)N` [Metmorphin, reference compound], in series [1], the “Pancreatic Langerhans islet structure, aldehyde fuchsine staining” value is “Restoration of pancreatic Langerhans islet” and the “Pancreatic Langerhans islet structure, haematoxylin-eosin staining” value was “Restoration of pancreatic Langerhans islet”. Moreover, the “Glucose content, mmol/l, in 10 days” value in series [2] (setting [4]) was 6.6 ± 0.3 mmol/L. Further, in series [2] (setting [5]), the “Glucose content, mmol/l, in 20 days” value was 6.4 ± 0.3 mmol/L. Further, in series [3] (in 10 days), the Body mass amounted to 185 ± 5 g; the Cholesterol is 2.6 ± 0.3 mmol/L and 2.4 ± 0.3 mmol/L; the Daily water consumption amounted to 25 ± 3 mL; the Glucose was 6.6 ± 0.3 mmol/L and 6.4 ± 0.3 mmol/L. Further, in series [3] (in 10 days), the Glycosylated hemoglobin is 5.1 ± 0.1 mol % and 5.0 ± 0.1 mol %; the “Percent of survived rats” value was 100%; the Total lipids is 10.6 ± 0.6 g/L and 10.5 ± 0.5 g/L; the Tri-glycerides is 2.6 ± 0.1 mmol/L. Further, the β-lipoproteins in series [3] (in 10 days) is 2.2 ± 0.3 g/L and 2.2 ± 0.4 g/L. Moreover, in series [3] (in 20 days), the Body mass came to 180 ± 5 g; the Cholesterol is 1.7 ± 0.3 mmol/L and 1.6 ± 0.3 mmol/L; the Daily water consumption is 20 ± 3 mL and 19 ± 3 mL; the Glucose was 6.4 ± 0.2 mmol/L and 6.3 ± 0.2 mmol/L. Also, in series [3] (in 20 days), the Glycosylated hemoglobin is 6.2 ± 0.2 mol % and 6.1 ± 0.2 mol %; the “Percent of survived rats” value was determined as 80%; the Total lipids is 11.6 ± 1.2 g/L and 11.5 ± 1.0 g/L; the Tri-glycerides was 1.6 ± 0.1 mmol/L and 1.6 ± 0.2 mmol/L. Besides, the β-lipoproteins in series [3] (in 20 days) was 2.2 ± 0.3 g/L and 2.2 ± 0.4 g/L.
